For 3 molecules, Kd and relative binding affinity (RBA) results are on record in ChEMBL document CHEMBL1157104 (J Med Chem, 2010).

Assay [1] concerns the target T1, Progesterone receptor (Homo sapiens, UniProt P06401).
T1 sequence (P06401 whole entry): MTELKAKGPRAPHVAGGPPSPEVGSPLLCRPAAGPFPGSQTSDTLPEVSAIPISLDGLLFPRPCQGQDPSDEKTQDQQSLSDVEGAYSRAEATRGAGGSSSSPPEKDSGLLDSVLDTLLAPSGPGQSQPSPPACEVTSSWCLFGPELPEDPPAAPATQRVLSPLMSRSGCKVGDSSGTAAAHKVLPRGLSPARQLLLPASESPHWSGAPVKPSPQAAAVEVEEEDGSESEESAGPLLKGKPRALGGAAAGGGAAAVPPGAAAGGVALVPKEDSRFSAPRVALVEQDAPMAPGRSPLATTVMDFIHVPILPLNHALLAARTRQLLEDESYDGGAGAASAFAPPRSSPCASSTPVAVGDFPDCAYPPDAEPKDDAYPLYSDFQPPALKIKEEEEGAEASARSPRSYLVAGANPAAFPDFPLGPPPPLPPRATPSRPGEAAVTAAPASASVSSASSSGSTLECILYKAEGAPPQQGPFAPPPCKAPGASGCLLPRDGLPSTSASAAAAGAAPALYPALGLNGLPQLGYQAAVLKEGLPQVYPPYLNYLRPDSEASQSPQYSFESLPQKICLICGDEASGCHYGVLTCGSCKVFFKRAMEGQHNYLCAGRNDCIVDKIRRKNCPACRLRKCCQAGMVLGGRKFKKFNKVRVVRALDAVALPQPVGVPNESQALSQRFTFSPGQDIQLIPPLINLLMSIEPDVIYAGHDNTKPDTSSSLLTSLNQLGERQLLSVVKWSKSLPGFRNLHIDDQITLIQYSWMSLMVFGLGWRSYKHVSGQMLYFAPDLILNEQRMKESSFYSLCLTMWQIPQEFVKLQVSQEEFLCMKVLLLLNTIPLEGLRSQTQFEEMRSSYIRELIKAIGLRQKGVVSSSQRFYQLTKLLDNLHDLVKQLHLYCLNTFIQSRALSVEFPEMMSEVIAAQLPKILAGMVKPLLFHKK
The experiment in a line: Binding affinity to progesterone receptor.

Assay [2] addresses T2, Progesterone receptor (Homo sapiens) (UniProt P06401).
T2 sequence (whole entry): T1 sequence (P06401 whole entry)
As to the kind of experiment: Binding affinity to progesterone receptor relative to R5020.

As usually defined, the Kd is a measure of binding affinity in units of concentration. Higher therefore signals lower affinity. Regarding `CCC(=O)[C@@]1(C)CC[C@H]2[C@@H]3CCC4=CC(=O)CCC4=C3CC[C@@]21C` [PROMEGESTONE], binding in assay [1] was characterised by a dissociation constant (Kd) of 0.4 nM.
Molecule `CC1(C)OC(=S)Nc2ccc(-c3ccc(C#N)n3CCCF)cc21` yielded a relative binding affinity (RBA) in assay [2] of 0.99.
The same measure, in the same setting: for `CC1(C)OC(=S)Nc2ccc(-c3ccc(C#N)n3CCF)cc21` the value was 18.5.
